“Also recorded” adds a separate entry of the source.

Assay type in all cases: physicochemical
The nature of data set [1]: Atomic force microscopy of peptide self-assembly. To be noted: ultrapure water, 0.25 mg/mL. The method, then:
To confirm the self-assembly of β-tetrapeptides 1 and 2 into fibres, atomic force microscopy (AFM) was performed on a Nanoscope IV AFM with a Multimode head using a vertical engage ‘E’ scanner. A 2 μL peptide solution in MilliQ (ultrapure) water (0.25 mg/mL) was prepared and placed on a clean mica surface. A low concentration of peptide was necessary to avoid contamination the probe. The peptide solution was air-dried for 30 minutes, followed by further drying with a stream of N2 gas. Images were obtained under tapping mode with NSC-15 ‘B’ silicon cantilevers (Micromasch, Tallinn, Estonia) with a nominal force constant of 40 and 20 N/m for 1 and 2, respectively. Topographic, phase and amplitude images at a resolution of 512×512 were simultaneously obtained using scan frequency of 1 Hz with typical scan sizes of 5 μm×5 μm and 2 μm×2 μm. Images were processed with a sequence of plane fitting and offset flattening using Gwyddion 2.29 (www.gwyddion.net) software.

Data set [2] is described as follows: Inversion test for hydrogel formation (gelation). To be noted: for Gelation result: 37° C., 24 hours. The procedure: An inversion test was used to qualitatively assess different solvent conditions and concentrations of 1 and 2 for forming a non-flowing, self-supporting stable hydrogel (Liebman, T., et al., 2007). Peptide solubility was tested using a variety of solvents and solvent mixtures: MilliQ (ultrapure) water, phosphate buffered saline (PBS) 1× (Sigma P3813), PBS 10× (Sigma P3813) and Dulbecco's Modified Eagle's Medium/Nutrient Mixture F-12 Ham (DMEM/F12) (Sigma D8437). 100 μL or 50 μL of solvent was added to 0.5 mg of peptide in a glass vial to achieve a final concentration of 5 or 10 mg/mL, respectively. The solution was vortexed up to 30 mins until all the peptide particles had dissolved and left to self-assemble and gelate for 30 minutes at room temperature.

Data set [3] can be described thus: Rheological characterisation (parallel plate rheometer). To be noted: strain sweep 1% to 100% over 20 minutes, 1 Hz, 37° C. The method, then:
Rheological measurements were undertaken using an Anton Paar Physical parallel plate rheometer at 37° C. Hydrogels were prepared in 75% MilliQ Water/25% DMEM/F12 using 10 mg/mL of the following: 100% 1, 50% 1/50% 2, and 100% 2. The hydrogel solutions were made just prior to experiment and vortexed thoroughly, and then immediately pipetted onto the base. A top plate with diameter 8 mm was lowered to form a measurement gap size of 0.1 mm. In an oscillatory time sweep test, the storage (elastic, G′) and loss (viscous, G″) moduli were measured with strain applied at 1% at a constant frequency of 1 Hz. For the cyclic step-strain test, after 20 minutes, the strain was increased to 100% for 1 minute to mechanically shear the hydrogel before it is returned to 1% strain. This was repeated an additional 2 times. The plateau modulus was calculated as the average of the storage modulus at the end of each 20-minute gelation cycle. A strain sweep was conducted from 1% to 100% strain over the 20 minutes with a constant frequency of 1 Hz. The gel-to-sol transition point was determined at the strain at which the storage and loss modulus equalled in value. A dynamic frequency sweep was performed from 0.01 to 10 Hz with a constant strain of 1%. All measurements were obtained in triplicate and all figures are presented as the average of those triplicates.

Setting [4] is: 50% MilliQ Water/50% DMEM/F12, 5 mg/mL.
[5] abbreviates: 50% MilliQ Water/50% DMEM/F12, 10 mg/mL.
The mark [6] stands for this setting: 75% MilliQ Water/25% DMEM/F12, 5 mg/mL.
The mark [7] stands for this setting: 75% MilliQ Water/25% DMEM/F12, 10 mg/mL.

For `CCCCCCCCCCCCCC(=O)NCC(CC(=O)NC(C)CC(=O)NC(CCCCN)CC(=O)NC1COC(=O)C1)NC(C)=O` (stereo not drawn) [compound 1, Ac-Az(Myr)AKS*-Lac], the “entanglement of the fibres (AFM)” value in data set [1] is “propensity for the nanofibres to aggregate together and form bundles”. Moreover, in data set [1], the “spontaneous self-assembly into fibres (AFM)” value is “distinct nanofibres”. Also, the “time within which the hydrogel reverts back to a solution” value in data set [2] (1:1 MilliQ Water and DMEM/F12, both 5 and 10 mg/mL) is at most 24 h. For the same molecule, the “duration of stable hydrogel under physiological conditions” value in data set [2] (3:1 MilliQ Water:DMEM/F12, 10 mg/mL) is “over several weeks”. The Gelation result in data set [2] (setting [4]) is “Unstable gel”; in data set [2] (setting [5]), “Unstable gel”; in data set [2] (setting [6]) it was “Unstable gel”; in data set [2] (setting [7]) it was “long-lasting stable hydrogel; also recorded: Stable gel”; in data set [2] (DMEM/F12, 5 mg/mL), “Liquid (liquid (has the same flow as water))”; in data set [2] (DMEM/F12, 10 mg/mL) it was “Poor dissolution”. For the same molecule, the Gelation result in data set [2] (MilliQ water, 5 mg/mL) is “Liquid (liquid (has the same flow as water))”; in data set [2] (MilliQ water, 10 mg/mL), “more viscous solution; also recorded: Viscous liquid”; in data set [2] (PBS 1×, 5 mg/mL), “Viscous liquid”; in data set [2] (PBS 1×, 10 mg/mL), “prevented the peptide from being completely dissolved; also recorded: Poor dissolution”; in data set [2] (PBS 10×, 5 mg/mL) it was “Viscous liquid”; in data set [2] (PBS 10×, 10 mg/mL), “prevented the peptide from being completely dissolved; also recorded: Poor dissolution”. Moreover, the peptide dissolution result in data set [2] (MilliQ water, both 5 and 10 mg/mL) is listed as “readily dissolved”.
In the case of `CCCCCCCCCCCCCC(=O)NCC(CC(=O)NC(C)CC(=O)NC(CC(=O)NC1COC(=O)C1)C(=O)NCCNC(=O)C(CC(=O)O)NC(=O)CNC(=O)C(CCCNC(=N)N)NC(C)=O)NC(C)=O` (stereo not drawn) [compound 2, Ac-Az(Myr)AX(RGD)S*-Lac], the “entanglement of the fibres (AFM)” value in data set [1] was “more wide-spread and mesh-like”. Besides, the “spontaneous self-assembly into fibres (AFM)” value in data set [1] is given as “distinct nanofibres”. In addition, the “Strain for gel-to-sol Transition” value in data set [3] is given as 31%. The peptide dissolution result in data set [2] (5 mg/mL, MilliQ water, PBS 1×, PBS 10×, DMEM and 50% MQ Water/50% DMEM/F12) is reported as “readily dissolved”. In addition, the Gelation result is “liquid solution; also recorded: Liquid (liquid (has the same flow as water))” in data set [2] (setting [4]); “Unstable gel” in data set [2] (setting [5]); “Unstable gel” in data set [2] (setting [6]); “Stable gel” in data set [2] (setting [7]); “liquid solution; also recorded: Liquid (liquid (has the same flow as water))” in data set [2] (DMEM/F12, 5 mg/mL); “Unstable gel” in data set [2] (DMEM/F12, 10 mg/mL). Further, the Gelation result is “liquid solution; also recorded: Liquid (liquid (has the same flow as water))” in data set [2] (MilliQ water, 5 mg/mL); “Liquid (liquid (has the same flow as water))” in data set [2] (MilliQ water, 10 mg/mL); “liquid solution; also recorded: Liquid (liquid (has the same flow as water))” in data set [2] (PBS 1×, 5 mg/mL); “Viscous liquid” in data set [2] (PBS 1×, 10 mg/mL); “liquid solution; also recorded: Liquid (liquid (has the same flow as water))” in data set [2] (PBS 10×, 5 mg/mL); “Poor dissolution” in data set [2] (PBS 10×, 10 mg/mL).
